Measured values taken from patent US20170234881A1, “METHODS OF DIAGNOSING AND TREATING CANCER” (INSERM ( INSTITUT NATIONAL DE LA SANTÉ ET DE LA RECHERCHE …, priority 2014, published 2017).

Columns and labels:
TS/A cells = assay: Cell invasion assay (matrigel-coated filters), TS/A; format: cell-based, mouse; settings: concentration-dependent, level reached
Procedure: FIG. 2. OCDO is a tumor promoter in vitro and in vivo and its inhibition contributes to the anti-tumor effects of Tam and DDA. (A, B) Histograms representing the effect of OCDO or 17β-estrogen (E2) on MCF7 (A) and TS/A (B) cell proliferation after 24 h treatment using a colorimetric immunoassay measuring BrDU incorporation in DNA (C, D) Histogram representing the effect of OCDO on MCF7 (C) and TS/A (D) cell invasion. Data are the mean of three separate experiments (±s.e.m), *P<0.05, **P<0.01, ***P<0.001 (Student's t-test). (E, F) Mice were implanted s.c. with MCF7 (E) or TS/A (F) cells and animals (8 per group) were treated s.c. every day starting on the day of implantation with either the solvent vehicle or OCDO (16 μg/kg for MCF7 or 50 μg/kg for TS/A). Animals were monitored for tumour growth twice a week. The data are representative of three independent experiments. The mean tumor volume±s.e.m is shown, *P<0.05, **P<0.01, ***P<0.001 (analysis of variance (ANOVA), Dunnett's post test). (G) Mean (±s.e.m) of Ki67 positive cell number determined from IHC staining of MCF7 tumor sections from (E), n=8, *P<0.05 (Student's t-test) using HistoQuant, Pannoramic Viewer (3DHistech). […]
Invasion assays were carried out using Bio-Coat migration chambers (BD Falcon) with 8 μm filters previously coated with matrigel. […] The entire membranes were mounted on glass slides, and were counted under a microscope. […]

shHSD2 MCF7 cells = assay: Proliferation of shHSD2 MCF7 cells (BrDU); format: cell-based, human; settings: sh11HSD2 MCF7 cells, 24 h; OCDO 5 μM; cortisone increasing concentrations
Procedure: FIG. 7. Knock-down of 11βHSD2 decreases cell proliferation, invasion and survival in MCF7 cells as well as tumor growth and OCDO reverses these effects. shC or shHSD2 MCF7 cells were analyzed as followed: (A) The proliferation of sh-C or shHSD2 cells treated or not with OCDO 5 μM 24 h was measured using quantification of DNA BrDU incorporation as described in FIG. 2A. (B) The proliferation of sh-C or shHSD2 cells treated or not with increasing concentration of cortisone for 24 h was measured as in (A). (C) The invasiveness of sh-C or shHSD2 cells treated or not with OCDO 5 μM for 72 h was assayed using matrigel-coated filters. (D) the formation of colony by sh-C or shHSD2 cells treated or not with OCDO 1 μM was quantified as described in FIG. 6F. […] Animals were monitored for tumor growth twice a week. […] (F) Mean (±s.e.m) of Ki67 positive cell number determined from IHC staining of shC or shHSD2 MCF7 tumor sections from (E), n=8, *P<0.05 (Student's t-test) using HistoQuant, Pannoramic Viewer (3DHistech).
MCF7 or HEK293T cells (5×10^6 cells) were transfected with 5 μg of the indicated plasmid using the NEON Transfection System and according to the manufacturer's recommendations. […] Several clones were analyzed by immunoblot analysis and real time RT-qPCR for the knock down of the expression of the protein of interest. […]

In the case of `CC(C)CCC[C@@H](C)[C@H]1CC[C@H]2[C@@H]3CC(=O)[C@@]4(O)C[C@@H](O)CC[C@]4(C)[C@H]3CC[C@]12C` [OCDO, 6-oxo-cholestan-3β,5α-diol], the “invasiveness compared with the control” value (TS/A cells) is reported as 2.3 fold and the “effect on the inhibition of cell proliferation induced by 11βHSD2 knock-down” value (shHSD2 MCF7 cells) is reported as “able to reverse the inhibition of cell proliferation”.
